Assay results: US20260151375A1, “CDK2 INHIBITORS AND METHODS OF USING THE SAME” (Cedilla Therapeutics, Inc., priority 2022, published 2026)

Key:
[1] = molecular target: T1, CDK2/Cyclin E1 (Homo sapiens, UniProt P24941); test: Caliper Assay (LabChip EZ Reader mobility shift assay), inhibition of CDK2/Cyclin E1 activity; type: biochemical; conditions: 2.5 nM CDK2/Cyclin E1(14-475), 100 μM ATP, 30 min preincubation; read-out: Caliper Assay (CDK2/CCNE1): IC50
T1 construct: purchased 14-475
Protocol: Inhibition of CDK2/Cyclin E1 activity in the presence of compounds of the present disclosure was evaluated using a Caliper LabChip® EZ Reader mobility shift assay. In the assay, activated CDK2/Cyclin E1 catalyzes the phosphorylation of a fluorescently tagged peptide 5-FAM-QSPKKG-CONH2 (PerkinElmer, FL Peptide 18) which induces a difference in capillary electrophoresis mobility. The peptide substrate and product were measured, and the conversion ratio was used to determine the inhibition (as % activity and IC50 values) of CDK2/Cyclin E1. Reactions contained 50 mM HEPES pH 7.5, 10 mM MgCl2, 1 mM EDTA, 2 mM DTT, 0.01% Brij35, 0.5 mg/mL BSA, 0.1% DMSO, 2.5 nM CDK2/Cyclin E1(14-475), 100 μM ATP, and 1.5 μM fluorescent peptide substrate.
Dose titrations of inhibitors in 100% DMSO were combined with 3.25 nM CDK2/Cyclin E1(14-475) and 130 μM of ATP in reaction buffer. The mixtures were incubated for 30 minutes before the addition of fluorescent peptide substrate to initiate the kinase reaction. The final conditions were 2.5 nM CDK2/Cyclin E1(14-475), 100 μM ATP, and 1.5 μM fluorescent peptide. The reactions were stopped after 100 minutes with the addition of EDTA (6 mM final EDTA concentration). The stopped reactions were analyzed on a Caliper LabChip© EZ Reader II. The conversion ratios were normalized to yield % activity, plotted against compound concentration, and fit to a four-parameter equation to determine the IC50 for each compound.

[2] = test system: Kuramochi cells; test: IncuCyte Kuramochi Assay (cell proliferation); type: cell-based; conditions: 72 h, Kuramochi cells labeled with mApple-H2B, cell count, read-out: IncuCyte - Kuramochi RB-WT: IC50
Protocol: IncuCyte® assay was used to measure the effect of disclosed compounds on cell proliferation. Fluorescent microscopy images of cells were taken immediately after compound treatment and 72 hours later. Image analysis software was used to obtain cell counts as a function of compound concentration. Kuramochi cells labeled with mApple-H2B were seeded on 384-well assay-ready plates. Plates were placed in an IncuCyte® (Sartorius) and scanned at 0 and 72 hours. IncuCyte® software was used to count the number of fluorescent nuclei in each well. The fold change in cell count from 0 to 72 hours in wells treated with increasing compounds concentrations (10 pts, ½ log dilution, 20 μM top concentration) was normalized to DMSO control wells. The normalized cell counts were fit with dose response curves and a […] was calculated.

Row | SMILES | IC50 [1] [µM] | IC50 [2] [µM]
1 | CC1(C)C[C@@H]1C(=O)N1CC2(CN(C(=O)c3cncs3)CC2c2nnc(Cc3ccc4c(c3)OCCO4)o2)C1 (some centres unmarked) [I-27] | 0.1 to 1 | > 10
2 | CC1(C)C[C@@H]1C(=O)N1CC2(CN(C(=O)c3cncs3)CC2c2nnc(Cc3ccc(C4CCOCC4)c(Cl)c3)o2)C1 (some centres unmarked) [I-31] | 0.1 to 1 | > 10
3 | CC1(C)C[C@@H]1C(=O)N1CC2(CN(C(=O)c3cncs3)CC2c2nnc(Cc3cccc4c3OCCO4)o2)C1 (some centres unmarked) [I-33] | 1 to 10 | > 10
4 | CC1(C)C[C@@H]1C(=O)N1CC2(C1)CN(c1ncnc3ncsc13)CC2c1nnc(C(F)(F)c2ccc(Cl)cc2)o1 (stereo partly drawn) [I-37, (8-(5-((4-chlorophenyl)difluoromethyl)-1,3,4-oxadiazol-2-yl)-6-(thiazolo[4,5-d]pyrimidin-7-yl)-2,6-diazaspiro[3.4]octan-2-yl)((S)-2,2-dimethylcyclopropyl)methanone] | 1 to 10 | > 10
5 | CC(C)(c1ccc(Cl)c(Cl)c1)c1nnc(C2CN(C(=O)c3cncs3)CC23CN(C(=O)[C@H]2CC2(C)C)C3)o1 (some centres unmarked) [I-39] | 0.1 to 1 | > 10
6 | O=C(c1cncs1)N1CC(c2nnc(Cc3ccc(Cl)c(Cl)c3)o2)C2(C1)CN(c1nc3ccccc3o1)C2 (centres unmarked) [I-41] | > 10 | > 10
7 | CC1(C)C[C@@H]1C(=O)N1CC2(CN(C(=O)c3ccnnc3)CC2c2nnc(C(F)(F)c3ccc(Cl)c(Cl)c3)o2)C1 (stereo partly drawn) [I-43, (8-(5-((3,4-dichlorophenyl)difluoromethyl)-1,3,4-oxadiazol-2-yl)-2-((S)-2,2-dimethylcyclopropane-1-carbonyl)-2,6-diazaspiro[3.4]octan-6-yl)(pyridazin-4-yl)methanone] | 1 to 10 | > 10
8 | CC1(C)C[C@@H]1C(=O)N1CC2(CN(C(=O)c3cncs3)CC2c2cn(Cc3ccc(Cl)c(Cl)c3)nn2)C1 (stereo partly drawn) [I-51, (8-(1-(3,4-dichlorobenzyl)-1H-1,2,3-triazol-4-yl)-2-((S)-2,2-dimethylcyclopropane-1-carbonyl)-2,6-diazaspiro[3.4]octan-6-yl)(thiazol-5-yl)methanone] | > 10 | > 10
9 | CC1(C)C[C@@H]1C(=O)N1CC2(CN(C(=O)c3cn[nH]c3)CC2c2nnc(C(F)(F)c3ccc(Cl)c(Cl)c3)o2)C1 (some centres unmarked) [I-52] | 0.1 to 1 | > 10
10 | CC1(C)C[C@@H]1C(=O)N1CC2(CN(C(=O)c3cccnn3)CC2c2nnc(C(F)(F)c3ccc(Cl)c(Cl)c3)o2)C1 (some centres unmarked) [I-53] | > 10 | > 10
11 | CC1(C)C[C@@H]1C(=O)N1CC2(CN(C(=O)c3cncnc3)CC2c2nnc(C(F)(F)c3ccc(Cl)c(Cl)c3)o2)C1 (some centres unmarked) [I-56] | 1 to 10 | > 10
12 | CC(C)(C(=O)N1CC2(CN(C(=O)c3cncs3)CC2c2nnc(C(F)(F)c3ccc(Cl)c(Cl)c3)o2)C1)C(F)(F)F (centres unmarked) [I-57] | 0.1 to 1 | > 10
13 | O=C(c1cncs1)N1CC(c2nnc(C(F)(F)c3ccc(Cl)c(Cl)c3)o2)C2(C1)CN(c1ncccn1)C2 (centres unmarked) [I-59, (8-(5-((3,4-dichlorophenyl)difluoromethyl)-1,3,4-oxadiazol-2-yl)-2-(pyrimidin-2-yl)-2,6-diazaspiro[3.4]octan-6-yl)(thiazol-5-yl)methanone] | > 10 | > 10
14 | O=C(c1cncs1)N1CC(c2nnc(Cc3ccc(Cl)c(Cl)c3)o2)C2(C1)CN(c1cccc[n+]1[O-])C2 (centres unmarked) [I-60] | > 10 | > 10
15 | Cc1cc(O)nn1C(C)c1nc(C2CN(C(=O)c3cncs3)CC23CN(C(=O)[C@H]2CC2(C)C)C3)no1 (some centres unmarked) [I-63] | 1 to 10 | > 10
16 | CC(c1nc(C2CN(C(=O)c3cncs3)CC23CN(C(=O)[C@H]2CC2(C)C)C3)no1)n1cc(C2CCCC2)cn1 (some centres unmarked) [I-64] | 0.01 to 0.1 | > 10
17 | Cc1nc(C)c(C(=O)N2CC(c3nnc(Cc4cccc(C5CCOCC5)n4)o3)C3(C2)CN(C(=O)[C@H]2CC2(C)C)C3)s1 (stereo partly drawn) [I-66, (2-((S)-2,2-dimethylcyclopropane-1-carbonyl)-8-(5-((6-(tetrahydro-2H-pyran-4-yl)pyridin-2-yl)methyl)-1,3,4-oxadiazol-2-yl)-2,6-diazaspiro[3.4]octan-6-yl)(2,4-dimethylthiazol-5-yl)methanone] | 0.1 to 1 | > 10
18 | CC1(C)C[C@@H]1C(=O)N1CC2(CN(C(=O)c3cncs3)CC2c2nnc(C(F)(F)c3ccccc3)o2)C1 (some centres unmarked) [I-70] | 1 to 10 | > 10

More lines, main results first:

Row | IC50 [1] [µM] | SMILES | IC50 [2] [µM]
19 | 0.1 to 1 | CC1(C)C[C@@H]1C(=O)N1CC2(CN(C(=O)c3cncs3)CC2c2nnc(CCc3ccc(Cl)c(Cl)c3)o2)C1 (some centres unmarked) [I-28] | > 10
20 | > 10 | CC1(C)C[C@@H]1C(=O)N1CC2(CN(C(=O)c3cncs3)CC2c2nnc(Cc3cc[nH]n3)o2)C1 (stereo partly drawn) [I-29, (8-(5-((1H-pyrazol-3-yl)methyl)-1,3,4-oxadiazol-2-yl)-2-((S)-2,2-dimethylcyclopropane-1-carbonyl)-2,6-diazaspiro[3.4]octan-6-yl)(thiazol-5-yl)methanone] | > 10
21 | 1 to 10 | CC1(C)C[C@@H]1C(=O)N1CC2(CN(C(=O)c3cncs3)CC2c2nnc(Cc3ccc(Cl)cc3)o2)C1 (some centres unmarked) [I-30] | > 10
22 | 1 to 10 | COc1ccccc1C(F)(F)c1nnc(C2CN(C(=O)c3cncs3)CC23CN(C(=O)[C@H]2CC2(C)C)C3)o1 (some centres unmarked) [I-34] | > 10
23 | 0.1 to 1 | CC1(C)C[C@@H]1C(=O)N1CC2(CN(C(=O)c3cncs3)CC2c2nnc(C(F)(F)c3ccc(C4CC4)cc3)o2)C1 (some centres unmarked) [I-40] | > 10
24 | 1 to 10 | CCOc1cc(C)nn1C(C)c1nc(C2CN(C(=O)c3cncs3)CC23CN(C(=O)[C@H]2CC2(C)C)C3)no1 (stereo partly drawn) [I-42, (2-((S)-2,2-dimethylcyclopropane-1-carbonyl)-8-(5-(1-(5-ethoxy-3-methyl-1H-pyrazol-1-yl)ethyl)-1,2,4-oxadiazol-3-yl)-2,6-diazaspiro[3.4]octan-6-yl)(thiazol-5-yl)methanone] | > 10
25 | 1 to 10 | CC1(C)C[C@@H]1C(=O)N1CC2(CN(C(=O)c3cnco3)CC2c2nnc(C(F)(F)c3ccc(Cl)c(Cl)c3)o2)C1 (some centres unmarked) [I-44] | > 10
26 | > 10 | CC1(C)C[C@@H]1C(=O)N1CC2(CN(C(=O)c3ncccn3)CC2c2nnc(C(F)(F)c3ccc(Cl)c(Cl)c3)o2)C1 (some centres unmarked) [I-46] | > 10
27 | > 10 | O=C(c1cncs1)N1CC(c2nnc(Cc3ccc(Cl)c(Cl)c3)o2)C2(C1)CN(c1ncc(C(F)(F)F)cn1)C2 (centres unmarked) [I-47] | > 10
28 | > 10 | O=C(c1cncs1)N1CC(c2nnc(Cc3ccc(Cl)c(Cl)c3)o2)C2(C1)CN(c1ncccn1)C2 (centres unmarked) [I-49] | > 10
29 | 1 to 10 | CC1(C)C[C@@H]1C(=O)N1CC2(CN(C(=O)c3cncs3)CC2c2nnc(Cc3nc(C4CCOCC4)ccc3F)o2)C1 (stereo partly drawn) [I-50, (2-((S)-2,2-dimethylcyclopropane-1-carbonyl)-8-(5-((3-fluoro-6-(tetrahydro-2H-pyran-4-yl)pyridin-2-yl)methyl)-1,3,4-oxadiazol-2-yl)-2,6-diazaspiro[3.4]octan-6-yl)(thiazol-5-yl)methanone] | > 10
30 | > 10 | CC1(C)C[C@@H]1C(=O)N1CC2(CN(C(=O)c3cnc(C(F)(F)F)s3)CC2c2nnc(C(F)(F)c3ccc(Cl)c(Cl)c3)o2)C1 (some centres unmarked) [I-54] | > 10
31 | 0.1 to 1 | COc1ccc(C2CCOCC2)nc1Cc1nnc(C2CN(C(=O)c3cncs3)CC23CN(C(=O)[C@H]2CC2(C)C)C3)o1 (some centres unmarked) [I-55] | > 10
32 | 0.01 to 0.1 | CC1(C)C[C@@H]1C(=O)N1CC2(CN(C(=O)c3cncs3)CC2c2nnc(C3(c4ccc(Cl)c(Cl)c4)CC(O)C3)o2)C1 (some centres unmarked) [I-61] | > 10
33 | 0.01 to 0.1 | CC(C)(c1coc(C2CCCC2)n1)c1nc(C2CN(C(=O)c3cncs3)CC23CN(C(=O)[C@H]2CC2(C)C)C3)no1 (some centres unmarked) [I-62] | 5 to 10
34 | 1 to 10 | CC1(C)C[C@@H]1C(=O)N1CC2(CN(C(=O)c3cncs3)CC2c2nnc(C(F)(F)c3ccc(Cl)cc3)o2)C1 (some centres unmarked) [I-65] | > 10
35 | 1 to 10 | CC1(C)C[C@@H]1C(=O)N1CC2(CN(C(=O)c3cncs3)CC2c2nnc(Cc3nc4ccccc4o3)o2)C1 (some centres unmarked) [I-67] | > 10
36 | 0.1 to 1 | COc1ccc(C(F)(F)c2nnc(C3CN(C(=O)c4cncs4)CC34CN(C(=O)[C@H]3CC3(C)C)C4)o2)cc1 (some centres unmarked) [I-68] | > 10
37 | 0.1 to 1 | CC1(C)C[C@@H]1C(=O)N1CC2(CN(C(=O)c3cncs3)CC2c2nnc(C(F)(F)c3ccc(Br)cc3)o2)C1 (some centres unmarked) [I-69] | > 10
